Consider 24 compounds from patent US12098144B2, “Piperazine indazole glucocorticoid receptor antagonists” (Corcept Therapeutics Incorporated, priority 2021, dated 2024).

Molecules are shown by their SMILES.

The target in this experiment is T1, glucocorticoid receptor (Homo sapiens, UniProt P04150).
T1 construct: endogenous in cells; ATCC cat
T1 sequence (P04150 1-777): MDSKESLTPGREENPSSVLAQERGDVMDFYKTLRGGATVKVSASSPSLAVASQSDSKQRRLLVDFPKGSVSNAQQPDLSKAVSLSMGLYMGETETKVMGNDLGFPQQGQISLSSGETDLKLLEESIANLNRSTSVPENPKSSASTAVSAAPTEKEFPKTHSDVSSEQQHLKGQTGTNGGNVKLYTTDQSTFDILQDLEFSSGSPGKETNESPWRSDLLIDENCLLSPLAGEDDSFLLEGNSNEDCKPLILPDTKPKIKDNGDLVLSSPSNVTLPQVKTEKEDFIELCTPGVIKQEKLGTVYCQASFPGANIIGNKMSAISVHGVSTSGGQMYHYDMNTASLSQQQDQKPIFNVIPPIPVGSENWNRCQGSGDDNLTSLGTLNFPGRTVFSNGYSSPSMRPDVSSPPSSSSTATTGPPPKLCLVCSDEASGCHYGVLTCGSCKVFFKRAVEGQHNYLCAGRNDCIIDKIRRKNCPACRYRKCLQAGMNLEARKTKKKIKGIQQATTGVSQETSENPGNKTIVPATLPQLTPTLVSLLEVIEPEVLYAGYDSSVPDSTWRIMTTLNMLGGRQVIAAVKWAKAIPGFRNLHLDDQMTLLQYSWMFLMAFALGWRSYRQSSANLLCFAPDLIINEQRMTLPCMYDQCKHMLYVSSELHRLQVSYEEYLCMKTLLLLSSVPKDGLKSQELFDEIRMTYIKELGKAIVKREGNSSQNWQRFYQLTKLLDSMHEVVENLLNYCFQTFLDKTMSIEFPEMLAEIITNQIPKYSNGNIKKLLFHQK
Kind of experiment: Hep G2 TAT Ki: inhibition of dexamethasone-induced TAT in HepG2 cells (96 well). To be noted: challenge of 100 nM dexamethasone, IC50 converted to Ki by Cheng and Prusoff equation. It is filed as cell-based. In a few lines:
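Cells lysed 15 min at 4 °C; TAT enzyme reaction 2 h at 37 °C, stopped with KOH, 30 min further at 37 °C. Inhibition fitted to 4-parameter logistic.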
In general, Ki refers to a dissociation constant, usually derived from enzyme kinetics or from competition with a known ligand. In turn, `Cc1cc2c(cnn2-c2ccc(F)cc2)cc1C1CN(S(=O)(=O)c2cnccc2C)CCN1CC(C)C(F)(F)F` (single isomer, unassigned) [Example 149, 1-(4-fluorophenyl)-6-methyl-5-(4-((4-methylpyridin-3-yl)sulfonyl)-1-(3,3,3-trifluoro-2-methylpropyl)piperazin-2-yl)-1H-indazole] gave a Ki of 56 nM. For `Cc1cc2c(cnn2-c2ccc(F)cc2)cc1C1CN(S(=O)(=O)c2ccccn2)CCN1CC(C)C(F)(F)F` (single isomer, unassigned) [Example 150, 1-(4-fluorophenyl)-6-methyl-5-(4-(pyridin-2-ylsulfonyl)-1-(3,3,3-trifluoro-2-methylpropyl)piperazin-2-yl)-1H-indazole] the value was 19 nM; for `Cc1cc2c(cnn2-c2ccc(F)cc2)cc1C1CN(S(=O)(=O)C2CCC2)CCN1CC(C)C(F)(F)F` (single isomer, unassigned) [Example 151, 5-(4-(cyclobutylsulfonyl)-1-(3,3,3-trifluoro-2-methylpropyl)piperazin-2-yl)-1-(4-fluorophenyl)-6-methyl-1H-indazole], 35 nM; for `Cc1cc2c(cnn2-c2ccc(F)cc2)cc1C1CN(S(=O)(=O)c2cnn(C)n2)CCN1CC1CC(F)C1` (single isomer, unassigned) [Example 156, 5-(1-((3-fluorocyclobutyl)methyl)-4-((2-methyl-2H-1,2,3-triazol-4-yl)sulfonyl)piperazin-2-yl)-1-(4-fluorophenyl)-6-methyl-1H-indazole], 28 nM. For `Cc1cc2c(cnn2-c2ccc(F)cc2)cc1C1CN(S(=O)(=O)c2cnn(C)n2)CCN1CC(C)(F)F` (single isomer, unassigned) [Example 157, 5-(1-(2,2-difluoropropyl)-4-((2-methyl-2H-1,2,3-triazol-4-yl)sulfonyl)piperazin-2-yl)-1-(4-fluorophenyl)-6-methyl-1H-indazole] the value was 43 nM; for `Cc1cc2c(cnn2-c2ccc(F)cc2)cc1C1CN(S(=O)(=O)c2cnn(C)n2)CCN1CC1CC1(F)F` (single isomer, unassigned) [Example 160, 5-(1-((2,2-difluorocyclopropyl)methyl)-4-((2-methyl-2H-1,2,3-triazol-4-yl)sulfonyl)piperazin-2-yl)-1-(4-fluorophenyl)-6-methyl-1H-indazole], 32 nM; for `Cc1cc2c(cnn2-c2ccc(F)cc2)cc1C1CN(S(=O)(=O)c2cnn(C)n2)CCN1CC(C)(C)C` (single isomer, unassigned) [Example 161, 1-(4-fluorophenyl)-6-methyl-5-(4-((2-methyl-2H-1,2,3-triazol-4-yl)sulfonyl)-1-neopentylpiperazin-2-yl)-1H-indazole], 57 nM. Then `Cc1cc2c(cnn2-c2ccc(F)cc2)cc1C1CN(S(=O)(=O)c2cnn(C)n2)CCN1CC(C)(C)C(F)(F)F` (single isomer, unassigned) [Example 163, 1-(4-fluorophenyl)-6-methyl-5-(4-((2-methyl-2H-1,2,3-triazol-4-yl)sulfonyl)-1-(3,3,3-trifluoro-2,2-dimethylpropyl)piperazin-2-yl)-1H-indazole], with 44 nM; and `Cc1cc2c(cnn2-c2ccc(F)c(C#N)c2)cc1C1CN(S(=O)(=O)c2cnn(C)n2)CCN1CCC(F)(F)F` (single isomer, unassigned) [Example 169, 2-fluoro-5-(6-methyl-5-(4-((2-methyl-2H-1,2,3-triazol-4-yl)sulfonyl)-1-(3,3,3-trifluoropropyl)piperazin-2-yl)-1H-indazol-1-yl)benzonitrile], with 66 nM. Take `Cc1cc2c(cnn2-c2ccc(F)c(C#N)c2)cc1C1CN(S(=O)(=O)c2cnn(C)n2)CCN1CCC(F)(F)F` (single isomer, unassigned) [Example 170, 2-fluoro-5-(6-methyl-5-(4-((2-methyl-2H-1,2,3-triazol-4-yl)sulfonyl)-1-(3,3,3-trifluoropropyl)piperazin-2-yl)-1H-indazol-1-yl)benzonitrile]: affinity was put at a Ki of 91 nM. For `CO[C@H]1C[C@@H](CN2CCN(S(=O)(=O)c3csc(C)n3)CC2c2cc3cnn(-c4ccc(F)cc4)c3cc2C)C1` (single isomer, unassigned) [Example 171, 4-((3-(1-(4-fluorophenyl)-6-methyl-1H-indazol-5-yl)-4-((3-methoxycyclobutyl)methyl)piperazin-1-yl)sulfonyl)-2-methylthiazole] the value was 24 nM. For `CC[C@@H](C)N1CCN(S(=O)(=O)c2cnn(C)n2)C[C@@H]1c1cc2cnn(-c3ccc(F)cc3)c2cc1C` (stereo in doubt) [Example 122, 5-(1-(sec-butyl)-4-((2-methyl-2H-1,2,3-triazol-4-yl)sulfonyl)piperazin-2-yl)-1-(4-fluorophenyl)-6-methyl-1H-indazole] the value was 110 nM. In turn, `Cc1cc2c(cnn2-c2ccc(F)cc2)cc1C1CN(S(=O)(=O)c2cnn(C)n2)CCN1Cc1ccccc1` (stereo not drawn) [Example 2, 5-(1-benzyl-4-((2-methyl-2H-1,2,3-triazol-4-yl)sulfonyl)piperazin-2-yl)-1-(4-fluorophenyl)-6-methyl-1H-indazole] gave a Ki of 81 nM. `COc1ccc(CN2CCN(S(=O)(=O)c3cnn(C)n3)CC2c2cc3cnn(-c4ccc(F)cc4)c3cc2C)cc1` (stereo not drawn) [Example 3, 1-(4-fluorophenyl)-5-(1-(4-methoxybenzyl)-4-((2-methyl-2H-1,2,3-triazol-4-yl)sulfonyl)piperazin-2-yl)-6-methyl-1H-indazole] gave an inhibition constant Ki of 85 nM. Turning to `Cc1cc2c(cnn2-c2ccc(F)cc2)cc1C1CN(S(=O)(=O)c2cnn(C)n2)CCN1CC(C)C` (stereo not drawn) [Example 4, 1-(4-fluorophenyl)-5-(1-isobutyl-4-((2-methyl-2H-1,2,3-triazol-4-yl)sulfonyl)piperazin-2-yl)-6-methyl-1H-indazole], the Ki came out at 41 nM.

Regarding `Cc1cc2c(cnn2-c2ccc(F)cc2)cc1C1CN(S(=O)(=O)c2cnn(C)c2)CCN1CC(C)C` (stereo not drawn) [Example 7, 1-(4-fluorophenyl)-5-(1-isobutyl-4-((1-methyl-1H-pyrazol-4-yl)sulfonyl)piperazin-2-yl)-6-methyl-1H-indazole], the Ki is 62 nM. Then `Cc1cc2c(cnn2-c2ccc(F)cc2)cc1C1CN(S(=O)(=O)C2CC2)CCN1CC(C)C` (stereo not drawn) [Example 8, 5-(4-(cyclopropylsulfonyl)-1-isobutylpiperazin-2-yl)-1-(4-fluorophenyl)-6-methyl-1H-indazole], with 66 nM; and `COCCn1cc(S(=O)(=O)N2CCN(CC(C)C)C(c3cc4cnn(-c5ccc(F)cc5)c4cc3C)C2)cn1` (stereo not drawn) [Example 9, 1-(4-fluorophenyl)-5-(1-isobutyl-4-((1-(2-methoxyethyl)-1H-pyrazol-4-yl)sulfonyl)piperazin-2-yl)-6-methyl-1H-indazole], with 72 nM; and `Cc1cc2c(cnn2-c2ccc(F)cc2)cc1C1CN(S(=O)(=O)c2cnn(C)n2)CCN1CC1CC1` (stereo not drawn) [Example 12, 5-(1-(cyclopropylmethyl)-4-((2-methyl-2H-1,2,3-triazol-4-yl)sulfonyl)piperazin-2-yl)-1-(4-fluorophenyl)-6-methyl-1H-indazole], with 68 nM. Then `Cc1cc2c(cnn2-c2ccc(F)cc2)cc1C1CN(S(=O)(=O)c2cnn(C)n2)CCN1CC1CCOCC1` (stereo not drawn) [Example 13, 1-(4-fluorophenyl)-6-methyl-5-(4-((2-methyl-2H-1,2,3-triazol-4-yl)sulfonyl)-1-((tetrahydro-2H-pyran-4-yl)methyl)piperazin-2-yl)-1H-indazole], with 97 nM. For `Cc1cc2c(cnn2-c2ccc(F)cc2)cc1C1CN(S(=O)(=O)c2cnn(C)n2)CCN1CC1CC1C` (stereo not drawn) [Example 14, 1-(4-fluorophenyl)-6-methyl-5-(4-((2-methyl-2H-1,2,3-triazol-4-yl)sulfonyl)-1-((2-methylcyclopropyl)methyl)piperazin-2-yl)-1H-indazole] the value was 62 nM. Regarding `CCN1CCN(S(=O)(=O)c2cnn(C)n2)CC1c1cc2cnn(-c3ccc(F)cc3)c2cc1C` (stereo not drawn) [Example 15, 5-(1-ethyl-4-((2-methyl-2H-1,2,3-triazol-4-yl)sulfonyl)piperazin-2-yl)-1-(4-fluorophenyl)-6-methyl-1H-indazole], the Ki came to 260 nM. The compound `Cc1cc2c(cnn2-c2ccc(F)cc2)cc1C1CN(S(=O)(=O)c2cnn(C)n2)CCN1CC1COC1` (stereo not drawn) [Example 16, 1-(4-fluorophenyl)-6-methyl-5-(4-((2-methyl-2H-1,2,3-triazol-4-yl)sulfonyl)-1-(oxetan-3-ylmethyl)piperazin-2-yl)-1H-indazole] returned a Ki of 520 nM. For `CC(C)=CCN1CCN(S(=O)(=O)c2cnn(C)n2)CC1c1cc2cnn(-c3ccc(F)cc3)c2cc1C` (stereo not drawn) [Example 17, 1-(4-fluorophenyl)-6-methyl-5-(4-((2-methyl-2H-1,2,3-triazol-4-yl)sulfonyl)-1-(3-methylbut-2-en-1-yl)piperazin-2-yl)-1H-indazole] the value was 110 nM.
